Test [1] has as its target T1, Tumor necrosis factor (Homo sapiens, UniProt P01375). Kind of test: Inhibition of recombinant human TNFalpha binding to TNF receptor 1-ECD at 100 uM by surface plasmon resonance-based in vitro competitive binding assay. Background: SPR reads the build-up and loss of mass on a sensor chip optically.
In test [2] the target is T1, Tumor necrosis factor. Kind of test: Inhibition of TNFalpha in HEK293T cells transfected with plasmid hRluc/TK/ luc2P/NF-kBRE/Hygro plasmid after 12 hrs by Dual-glo luciferase assay system. It counts as cell-based, HEK-293T.
In test [3] the target is T1, Tumor necrosis factor. Nature of the test: Inhibition of TNFalpha (unknown origin) assessed as IkappaB-alpha phosphorylation in Hela cells after 15 mins by ELISA. It counts as cell-based. On the technique in general: ELISA stands for enzyme-linked immunosorbent assay.
Test [4] concerns the target T1, Tumor necrosis factor. Nature of the test: Inhibition of TNFalpha in HEK293T cells transfected with plasmid hRluc/TK/ luc2P/NF-kBRE/Hygro plasmid at 30 uM after 12 hrs by Dual-glo luciferase assay system. The note with it: HEK-293T. Format: cell-based.
Test [5] concerns the target T1, Tumor necrosis factor. Nature of the test: Inhibition of TNFalpha in HEK293T cells transfected with plasmid hRluc/TK/ luc2P/NF-kBRE/Hygro plasmid at 90 uM after 12 hrs by Dual-glo luciferase assay system. Format: cell-based. The note with it: HEK-293T.

T1 sequence (P01375 whole entry, the tested form may be a part): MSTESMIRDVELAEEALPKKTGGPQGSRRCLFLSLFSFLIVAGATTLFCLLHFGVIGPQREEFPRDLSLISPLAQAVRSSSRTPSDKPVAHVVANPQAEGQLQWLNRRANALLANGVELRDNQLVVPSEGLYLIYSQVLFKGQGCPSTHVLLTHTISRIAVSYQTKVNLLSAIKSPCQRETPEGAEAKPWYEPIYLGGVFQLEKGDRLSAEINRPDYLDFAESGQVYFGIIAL

Broadly, the inhibition is the drop in the measured response relative to a control, in per cent. By IC50 is commonly meant the concentration at which inhibition is half-maximal. As to `O=C1Sc2c(S(=O)(=O)Nc3ccc(O)cc3)cc(S(=O)(=O)Nc3ccc(O)cc3)c3cccc1c23`, the inhibition on Tumor necrosis factor [1] stood at 52%. For the same compound, the figures for the IC50 at Tumor necrosis factor [2] (read-out: IC50) and on Tumor necrosis factor [3] were 14 µM and 25.3 µM, respectively.
On to `Cc1ccc(C(=O)C2=C(O)C(=O)N(c3cccc(C(F)(F)F)c3)C2c2ccccc2[N+](=O)[O-])cc1` (stereo not drawn), for which the inhibition at Tumor necrosis factor [1] was 26%.
For the compound `COc1ccc(C2Nc3ccccc3-c3nnc(SCc4ccccc4Cl)nc3O2)cc1C` (stereo not drawn), at Tumor necrosis factor [1], the inhibition amounted to 32%.
Consider `O=S(=O)(Nc1ccc(O)c(Cl)c1)c1ccc(F)cc1`, for which the inhibition at Tumor necrosis factor [1] came out at 31%; at Tumor necrosis factor [4], 30%. For the same compound, on Tumor necrosis factor [2] (read-out: IC50), the IC50 was above 100 µM.
As to `CCOc1cc(C2NC(=O)NC(c3ccccc3)=C2C(C)=O)c(Br)c(Br)c1OCC(N)=O` (stereo not drawn), the inhibition at Tumor necrosis factor [1] stood at 16%.
Take `O=C(O)CCCNS(=O)(=O)c1ccc2c3c(cccc13)C(=O)N2`: the IC50 entry against Tumor necrosis factor [2] (hek-293t) is “Not Active”.
`CC(=O)Oc1ccc(C)cc1N1C(=O)c2cccc([N+](=O)[O-])c2C1=O`: the inhibition on Tumor necrosis factor [1] came to 68%.
The same measure, in the same setting: for `CCc1nnc(NC(=O)CSc2nnc(-c3ccc([N+](=O)[O-])cc3)n2-c2ccc(C)cc2)s1` the value was 35%.
For the compound `O=C1Nc2ccc(S(=O)(=O)Nc3ccc(O)c(Cl)c3)c3cccc1c23`, at Tumor necrosis factor [1], the inhibition was 28%. The IC50 was determined as 42.3 µM at Tumor necrosis factor [2] (read-out: IC50) and 45.7 µM on Tumor necrosis factor [3].
Consider `O=S(=O)(Nc1cc(Cl)c(O)c(Cl)c1)c1ccc2ccccc2c1`, for which the values for the inhibition at Tumor necrosis factor [1] and on Tumor necrosis factor [4] were 37% and 30%, respectively. The IC50 on Tumor necrosis factor [2] (read-out: IC50) is above 100 µM.
`COC(=O)[C@@](NNc1ccc(C)c(C)c1)(NC(=O)c1ccc(Cl)cc1Cl)C(F)(F)F`: the inhibition at Tumor necrosis factor [1] stood at 17%.
Take `CCOc1cc(/C=C2\C(=O)Nc3ccc(Br)cc32)cc(Cl)c1O`: the inhibition on Tumor necrosis factor [1] stood at 24%; against Tumor necrosis factor [5] it was 40%.
Turning to `N#CC1=C(N)Oc2n[nH]c(-c3ccccc3)c2C1c1ccc(OCC(N)=O)cc1` (stereo not drawn), the inhibition at Tumor necrosis factor [1] came to 20%.
Take `Cc1cccc(/N=C2/NC(=O)/C(=C/c3cc(C)n(-c4cc(C(=O)O)cc(C(=O)O)c4)c3C)S2)c1C`: on Tumor necrosis factor [1], the inhibition came out at 32%.

Source of the values: ChEMBL document CHEMBL3352658 (Eur J Med Chem, 2014).
